The source of these data is ChEMBL document CHEMBL4680353, “Synthesis, anticancer activity and molecular docking studies of N-deacetylthiocolchicine and 4-iodo-N-deacetylthiocolchicine derivatives” (Bioorg Med Chem, 2021).

The source made the active and inactive calls. The calls are words filed in the database; no cut-off is given here.

Experiment [1] relates to BALB/3T3. Nature of the experiment: Antiproliferative activity against mouse BALB/3T3 cells incubated for 72 hrs by SRB assay. Format: ADME, cell-based. The note with it: BALB/3T3, 72 h. A general note: In SRB staining, fixed cells bind dye roughly in proportion to their protein.
Experiment [2] relates to LoVo. Put plainly: Antiproliferative activity against human LoVo cells incubated for 72 hrs by SRB assay. In kind it is functional, cell-based.
Experiment [3] relates to A549. Nature of the experiment: Antiproliferative activity against human A549 cells incubated for 72 hrs by SRB assay. The note with it: A549, 72 h. In kind it is functional, cell-based.
The nature of experiment [4]: cells. The note with it: Homo sapiens, LoVo/DX, 72 h. Format: functional, cell-based.
Experiment [5] can be described thus: Resistance index, ratio of IC50 for antiproliferative activity against human Lovo/DX cells to IC50 for antiproliferative activity against human LoVo cells. In kind it is functional.
Experiment [6] is described as follows: Antiproliferative activity against human ALL5 cells incubated for 120 hrs followed by MTT addition further incubated for 48 hrs. Format: functional, cell-based.
The test system of experiment [7] is MCF7. Nature of the experiment: Antiproliferative activity against human MCF-7 cells incubated for 72 hrs by SRB assay. The note with it: MCF7, 72 h.
For experiment [8], the system named is ALL5. Nature of the experiment: Induction of apoptosis in human ALL-5 cells assessed as increase in PARP cleavage at 45 nM incubated for 48 hrs by Western blot analysis relative to control. Format: functional, cell-based. On the technique in general: Immunoblotting shows a protein as a band on a membrane.
The subject of experiment [9] is ALL5. Put plainly: Cell cycle arrest in human ALL-5 cells assessed as accumulation at sub-G1 phase after 24 hrs at 5 times of IC50 by propidium iodide staining-based flow cytometric analysis relative to control. In kind it is functional. For orientation: Flow cytometry measures light scatter and fluorescence of single cells or particles in a stream.
The test system of experiment [10] is ALL5. Nature of the experiment: Induction of apoptosis in human ALL-5 cells assessed as increase in PARP cleavage at 23 nM incubated for 48 hrs by Western blot analysis relative to control. Format: functional, cell-based.
Experiment [11] relates to ALL5. Put plainly: Induction of apoptosis in human ALL-5 cells assessed as increase in PARP cleavage at 43 nM incubated for 48 hrs by Western blot analysis relative to control. Format: functional, cell-based.
Experiment [12] concerns ALL5. Nature of the experiment: Induction of apoptosis in human ALL-5 cells assessed as increase in PARP cleavage at 0.2 uM incubated for 24 hrs by Western blot analysis relative to control.

The IC50 is the concentration that gives 50% inhibition. A low value points to greater potency in that assay.

On to `COc1c(I)c2c(c(OC)c1OC)-c1ccc(SC)c(=O)cc1[C@@H](NC(=O)c1ccccc1)CC2`, for which the IC50 worked out at 76.2 nM in experiment [1]; 7.2 nM in experiment [2]; 13.3 nM in [3]; 72.9 nM in experiment [4]; 25.4 nM in experiment [6]; 47.5 nM in [7]. Besides, the “Ratio IC50” value in [5] was found to be 10.2.
As to `CCN(CC)C(=O)N[C@H]1CCc2c(I)c(OC)c(OC)c(OC)c2-c2ccc(SC)c(=O)cc21`, the 50% inhibitory concentration (IC50) in [1] was 107 nM; in experiment [2], 64.6 nM; in experiment [3], 81.3 nM; in experiment [4], 794 nM; in experiment [6] it was 81.9 nM; in [7], 94.7 nM. In experiment [5], the “Ratio IC50” value was determined as 12.3.
For the compound `CCC(=O)N[C@H]1CCc2c(I)c(OC)c(OC)c(OC)c2-c2ccc(SC)c(=O)cc21`, the IC50 in experiment [1] was found to be 39.6 nM; in experiment [2], 7.2 nM; in experiment [3], 11.4 nM; in [4], 168 nM; in [6], 9 nM; in experiment [7] it was 10.8 nM. The “Ratio IC50” value in [5] stood at 23.3. In [8], the result was Active.
On to `COc1cc2c(c(OC)c1OC)-c1ccc(SC)c(=O)cc1[C@@H](NC(=O)c1ccccc1)CC2`, for which the 50% inhibitory concentration (IC50) came to 21.6 nM in [1]; 5.6 nM in experiment [2]; 11.2 nM in experiment [3]; 57.9 nM in experiment [4]; 5.7 nM in experiment [6]; 11.2 nM in experiment [7]. Besides, the “Ratio IC50” value in experiment [5] is recorded as 10.4.
`COc1cc2c(c(OC)c1OC)-c1ccc(SC)c(=O)cc1[C@@H](NC(=O)C(C)C)CC2`: the IC50 in [1] worked out at 69.9 nM; in experiment [2], 9 nM; in experiment [3], 15.8 nM; in experiment [4], 174 nM; in experiment [6], 5.5 nM; in [7], 13.5 nM. Besides, the “Ratio IC50” value in [5] was determined as 19.3. The outcome in experiment [9] was Active.
Consider `COCC(=O)N[C@H]1CCc2cc(OC)c(OC)c(OC)c2-c2ccc(SC)c(=O)cc21`, for which the IC50 in [1] was 12 nM; in [2], 8.2 nM; in [3] it was 13.5 nM; in experiment [4], 132 nM; in experiment [6], 8.5 nM; in experiment [7], 12.7 nM. Besides, in [5], the “Ratio IC50” value amounted to 16.
For `COc1cc2c(c(OC)c1OC)-c1ccc(SC)c(=O)cc1[C@@H](NC(=O)CCCCl)CC2`, the IC50 in experiment [1] worked out at 20.2 nM; in [2] it was 8.4 nM; in experiment [3] it was 13.3 nM; in experiment [4] it was 102 nM; in experiment [6], 5.9 nM; in experiment [7] it was 11.9 nM. In experiment [5], the “Ratio IC50” value stood at 12.2. Also, the outcome in [9] was Active.
In the case of `CCCCCCCCCC(=O)N[C@H]1CCc2c(I)c(OC)c(OC)c(OC)c2-c2ccc(SC)c(=O)cc21`, the concentration for half-maximal inhibition (IC50) in [1] was 305 nM; in experiment [2], 568 nM; in experiment [3], 833 nM; in [4], 3870 nM; in [6] it was 615 nM; in experiment [7] it was 846 nM. In addition, the “Ratio IC50” value in experiment [5] stood at 6.8.
For `COc1c(I)c2c(c(OC)c1OC)-c1ccc(OC)c(=O)cc1[C@@H](NC(C)=O)CC2`, the IC50 in experiment [1] was determined as 135 nM; in experiment [2], 10.2 nM; in experiment [3], 93.9 nM; in experiment [4] it was 2780 nM; in [6], 15.5 nM; in experiment [7] it was 97.7 nM. Further, the “Ratio IC50” value in experiment [5] is 278.
Take `CCN(CC)C(=O)N[C@H]1CCc2cc(OC)c(OC)c(OC)c2-c2ccc(SC)c(=O)cc21`: the concentration for half-maximal inhibition (IC50) in experiment [1] came to 88.2 nM; in [2], 69.1 nM; in [3], 133 nM; in [4] it was 1100 nM; in [6], 17.4 nM; in experiment [7], 113 nM. The “Ratio IC50” value in experiment [5] came to 16.
Take `CCC(=O)N[C@H]1CCc2cc(OC)c(OC)c(OC)c2-c2ccc(SC)c(=O)cc21`: the IC50 in [1] is 17.9 nM; in experiment [2], 8.5 nM; in [3], 13.2 nM; in [4], 163 nM; in [6] it was 4.6 nM; in experiment [7] it was 12.4 nM. The “Ratio IC50” value in experiment [5] is 19.1. Moreover, the result in [10] was Active.
For the compound `CCCCCCCCCC(=O)N[C@H]1CCc2cc(OC)c(OC)c(OC)c2-c2ccc(SC)c(=O)cc21`, the IC50 in [1] stood at 87.2 nM; in [2] it was 7.6 nM; in experiment [3] it was 13.3 nM; in experiment [4], 84.6 nM; in experiment [6] it was 27.3 nM; in experiment [7], 66.3 nM. The “Ratio IC50” value in [5] came to 11.2.
With `COc1cc2c(c(OC)c1OC)-c1ccc(OC)c(=O)cc1[C@@H](NC(C)=O)CC2` [COLCHICINE], the half-maximal inhibitory concentration (IC50) in experiment [1] was found to be 106 nM; in experiment [6], 8.6 nM. Further, the outcome in experiment [11] was Active.
Consider `COc1c(I)c2c(c(OC)c1OC)-c1ccc(SC)c(=O)cc1[C@@H](NC(C)=O)CC2`, for which the 50% inhibitory concentration (IC50) in experiment [2] was 7.4 nM; in experiment [6], 8.7 nM. Besides, the “Ratio IC50” value in [5] came out at 91.7. Also, in experiment [9], the result was Active.
Turning to `COc1c(I)c2c(c(OC)c1OC)-c1ccc(SC)c(=O)cc1[C@@H](NC(=O)CCCCl)CC2`, the half-inhibitory concentration (IC50) was determined as 87.8 nM in [1]; 39.2 nM in experiment [2]; 82.8 nM in experiment [3]; 529 nM in experiment [4]; 47.5 nM in experiment [6]; 89.4 nM in experiment [7]. Further, the “Ratio IC50” value in experiment [5] is 13.5.
`COc1cccc2c1C(=O)c1c(O)c3c(c(O)c1C2=O)C[C@@](O)(C(=O)CO)C[C@@H]3O[C@H]1C[C@H](N)[C@H](O)[C@H](C)O1` [DOXORUBICIN]: in [12], the outcome was Active. Moreover, the values for the IC50 in [3] and in experiment [4] were 258 nM and 4750 nM, respectively.
For the compound `COc1c(I)c2c(c(OC)c1OC)-c1ccc(SC)c(=O)cc1[C@@H](NC(=O)C(C)C)CC2`, the half-inhibitory concentration (IC50) in [1] came out at 69.7 nM; in [2] it was 7 nM; in experiment [3], 62.6 nM; in experiment [4] it was 91.3 nM; in experiment [6], 19.9 nM; in [7], 44.5 nM. Also, the “Ratio IC50” value in experiment [5] turned out to be 13.
`COCC(=O)N[C@H]1CCc2c(I)c(OC)c(OC)c(OC)c2-c2ccc(SC)c(=O)cc21`: the IC50 in experiment [1] was 51.2 nM; in experiment [2] it was 7 nM; in experiment [3] it was 10.5 nM; in [4], 92.2 nM; in [6], 15 nM; in experiment [7] it was 10.5 nM. In addition, the “Ratio IC50” value in experiment [5] came to 13.2.
Consider `COc1c(I)c2c(c(OC)c1OC)-c1ccc(SC)c(=O)cc1[C@@H](N)CC2`, for which the 50% inhibitory concentration (IC50) in experiment [1] was 1420 nM; in experiment [2] it was 126 nM; in experiment [3], 866 nM; in experiment [4], 844 nM; in [6], 135 nM; in experiment [7] it was 1700 nM. Moreover, in experiment [5], the “Ratio IC50” value was determined as 6.7.
